Experimental data as given in ChEMBL document CHEMBL1201862, “PubChem BioAssay data set” (2004).
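Cultured in 96-well plates, cells were exposed to test compound for 48 hours across five concentrations. GI50 = concentration required for 50% inhibition of growth.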 The source made the active and inactive calls. Cut-off read from the data, not from the text of the source: active = GI50 up to about 1.1 µM and inactive = higher.

Tests used:
Test in all cases: NCI tumour cell line growth inhibition, 48 h
[1] = test system: A549
[2] = test system: BT-549
[3] = test system: DU-145
[4] = test system: EKVX
[5] = test system: HCC 2998
[6] = test system: HCT-15
[7] = test system: HOP-62
[8] = test system: KM12
[9] = test system: M14
[10] = test system: MCF7
[11] = test system: OVCAR-3
[12] = test system: OVCAR-4
[13] = test system: OVCAR-8
[14] = test system: RPMI-8226
[15] = test system: RXF 393
[16] = test system: SF-268
[17] = test system: SK-OV-3
[18] = test system: SNB-19
[19] = test system: SR
[20] = test system: UO-31

SMILES	GI50 [1]	GI50 [2]	GI50 [3]	GI50 [4]	GI50 [5]	GI50 [6] [µM]	GI50 [7]	GI50 [8]	GI50 [9]	GI50 [10]	GI50 [11]	GI50 [12]	GI50 [13]	GI50 [14]	GI50 [15]	GI50 [16]	GI50 [17]	GI50 [18]	GI50 [19]	GI50 [20]
CC(C)CCC1(O)O[C@H]2C[C@H]3[C@@H]4CCC5CC(=O)C=C[C@]5(C)[C@H]4CC[C@]3(C)[C@H]2[C@@H]1C (some centres undefined)	14.7 µM (inactive)	14.3 µM (inactive)	14.7 µM (inactive)	16.7 µM (inactive)	0.148 µM (active)	11.2	15 µM (inactive)	11.8 µM (inactive)	15.9 µM (inactive)	7.73 µM (inactive)	10.8 µM (inactive)	11.9 µM (inactive)	14.2 µM (inactive)	4.88 µM (inactive)	11.8 µM (inactive)	13.4 µM (inactive)	18.8 µM (inactive)	17.5 µM (inactive)	8.36 µM (inactive)	16.6 µM (inactive)
O/N=C1\SC(=N\O)/C(=N/O)S\C1=N/O	> 100 µM (inactive)	> 100 µM (inactive)	> 100 µM (inactive)	> 100 µM (inactive)	> 100 µM (inactive)	> 100	> 100 µM (inactive)	79.4 µM (inactive)	> 100 µM (inactive)	> 100 µM (inactive)	> 100 µM (inactive)	> 100 µM (inactive)	> 100 µM (inactive)	83.2 µM (inactive)	> 100 µM (inactive)	–	> 100 µM (inactive)	> 100 µM (inactive)	38.2 µM (inactive)	87.5 µM (inactive)
CSc1c(C#N)c(O)nc(N)c1C(=O)Nc1ccc(Cl)cc1	13.4 µM (inactive)	24.5 µM (inactive)	17.5 µM (inactive)	14.9 µM (inactive)	11.5 µM (inactive)	11.5	16 µM (inactive)	7.96 µM (inactive)	5.2 µM (inactive)	8.63 µM (inactive)	14.9 µM (inactive)	31.4 µM (inactive)	19.1 µM (inactive)	11.2 µM (inactive)	23.6 µM (inactive)	19.5 µM (inactive)	23.3 µM (inactive)	31.8 µM (inactive)	> 69.2 µM (inactive)	11.2 µM (inactive)
CC1(C)CCC2=C(O1)/C(=N\Nc1ccc(S(N)(=O)=O)cc1)c1ccccc1C2=O	14.6 µM (inactive)	13.1 µM (inactive)	12.5 µM (inactive)	16.7 µM (inactive)	5.25 µM (inactive)	19.2	7.8 µM (inactive)	10.5 µM (inactive)	16.1 µM (inactive)	13.5 µM (inactive)	16.7 µM (inactive)	5.81 µM (inactive)	10.6 µM (inactive)	27.6 µM (inactive)	5.37 µM (inactive)	11 µM (inactive)	4.15 µM (inactive)	16.2 µM (inactive)	5.61 µM (inactive)	18.2 µM (inactive)
Cn1cc(NC(=O)Nc2cc(C(=O)Nc3cc(C(=O)Nc4ccc(S(=O)(=O)O)c5cc(S(=O)(=O)O)ccc45)n(C)c3)n(C)c2)cc1C(=O)Nc1cc(C(=O)Nc2ccc(S(=O)(=O)O)c3cc(S(=O)(=O)O)ccc23)n(C)c1	85.7 µM (inactive)	> 100 µM (inactive)	> 100 µM (inactive)	34 µM (inactive)	> 100 µM (inactive)	> 100	> 100 µM (inactive)	> 100 µM (inactive)	> 100 µM (inactive)	> 100 µM (inactive)	> 100 µM (inactive)	> 100 µM (inactive)	> 100 µM (inactive)	> 100 µM (inactive)	> 100 µM (inactive)	> 100 µM (inactive)	> 100 µM (inactive)	> 100 µM (inactive)	> 100 µM (inactive)	> 100 µM (inactive)
